Reference: ChEMBL document CHEMBL1141542, “Synthesis and evaluation of 3- and 7-substituted geranylgeranyl pyrophosphate analogs” (Bioorg Med Chem Lett, 2008)

Experiments:
[1] = Inhibition of FTase
[2] = Inhibition of GGTase 1
[3] = Activity of GGTase 1
[4] = Activity of FTase

IC50 [1] [nM] | IC50 [2] [nM] | Km [3] [µM] | Km [4] [µM] | Structure (SMILES)
> 5000 | 1000 |  |  | C=C/C(=C\CC/C(C)=C/COP(=O)(O)OP(=O)(O)O)CC/C=C(\C)CCC=C(C)C
453 | 846 |  |  | C=CC/C(=C\COP(=O)(O)OP(=O)(O)O)CC/C=C(\C)CC/C=C(\C)CCC=C(C)C
715 |  | 1.75 |  | C=C/C(=C\COP(=O)(O)OP(=O)(O)O)CC/C=C(\C)CC/C=C(\C)CCC=C(C)C
> 5000 |  | 0.027 |  | C=CC/C(=C\CC/C(C)=C/COP(=O)(O)OP(=O)(O)O)CC/C=C(\C)CCC=C(C)C
189 |  |  |  | C=CC/C(=C\COP(=O)(O)OP(=O)(O)O)CC/C=C(\C)CCC=C(C)C
 |  |  | 0.156 | C=C/C(=C\COP(=O)(O)OP(=O)(O)O)CC/C=C(\C)CCC=C(C)C
